Source: US11147796B2, “Agent for preventing or ameliorating hearing impairment” (Tohoku University, priority 2017, dated 2021)

Tests used:
“m.1555A>G mutant” cells [1] = assay: Cytotoxicity level (extracellular LDH activity) of BSO-treated cells; type: cell-based, human; conditions: BSO 100 μM, 48 hours
Method: (§1) In the following Examples 2, 3, and 5, “m.1555A>G mutant” cells were obtained by skin reproductive to a patient having “m.1555A>G mutation” to obtain dermal fibroblasts, then 10% Primary culture was carried out in DMEM (low glucose) culture solution (manufactured by Nacalai Tesque, Inc) containing FBS (Fetal bovine serum) under the condition of 5% CO2/20% O2, at 37° C. and isolated. In the following Examples 4 and 5, the inner ear culture was carried out in DMEM (high glucose) culture medium containing 10% FBS (Fetal bovine serum) under the condition of 5% CO2/20% O2, at 37° C.
(§2) [1] 2000 cells of “m.1555A>G mutant” cells were plated per well in a 96-well cell culture plate and cultured for 24 hours.
[2] Glutathione synthesis inhibitor BSO (L-Buthionine sulphoximine) (manufactured by Sigma-Aldrich) was mixed in the culture solution to be 100 μM and cultured for 24 hours (BSO-treated group). As a control, “m.1555A>G mutant” cells were cultured for 24 hours in the absence of BSO (control treatment group). For the BSO-treated group, the compound #5 synthesized in Example 1 was mixed into the culture solution so as to be at various concentrations (0.3, 1, 3, 10, and 30 μM) and cultured for 48 hours (N=4). As a control, the cells were cultured in the absence of compound #5 (DMSO was added so as to be 0.01%.). Cell survival level was measured by MTT assay using Cell Counting Kit-8 (manufactured by Dojindo Laboratories). That is, 100 μL of Cell Count Reagent SF was added to each well, incubated for 2 hours, and after 3 seconds of stirring with a microplate reader, the absorbance was measured at 450 nm (reference 750 nm). In addition, the level of cytotoxicity was detected by measuring lactate dehydrogenase (LDH) activity released extracellularly using Cytotoxicity LDH Assay Kit-WST (manufactured by Dojindo Laboratories). That is, 100 μL each of Working Solution prepared in each well was added, incubated for 30 minutes, Stop Solution was added in 50 μL each, and after stirring for 3 seconds with a microplate reader, the absorbance was measured at 490 nm (reference 750 nm).

[2] = tested on: skin cells derived from hearing loss patients attributable to other inherited diseases; assay: Amount of ATP production in skin cells of patients with other inherited diseases; type: cell-based, human; conditions: POU4F3 gene mutation, MELAS [m.3243A>G mutation], Alport syndrome
outer hair cells = assay: Survival rate of outer hair cells in cultured inner ear with cisplatin; type: cell-based, C57BL/6J mouse; conditions: 48 hours
Method: as §1
[1] The inner ear of C57BL/6J mouse (hereinafter referred to as “P3 mouse”) on the third day after birth was isolated and cultured in a culture solution for 24 hours.
[2] […] Thereafter, washing with TBS (TBST) solution containing 0.3% Triton X-100 for 5 minutes was repeated twice, followed by taking photograph with a fluorescence microscope (BZ-9000, manufactured by Keyence) and observed using BZ-H1 software (manufactured by Keyence). From the obtained image, the number of cells and the number of damaged cells, each of which has a shape of 200 μm each corresponding to each part of the apex turn, the media turn, and the basilar turn, were measured and 3 parts of the cochlea (apex, media, basilar) were calculated from the survival rate (%) of the outer hair cells and the inner hair cells. […]

“m.1555A>G mutant” cells [3] = assay: Cell survival level (MTT assay, Cell Counting Kit-8) of BSO-treated cells; type: cell-based, human; conditions: BSO 100 μM, 48 hours
Method: as §1
[1] […]
[2] […] Cell survival level was measured by MTT assay using Cell Counting Kit-8 (manufactured by Dojindo Laboratories). That is, 100 μL of Cell Count Reagent SF was added to each well, incubated for 2 hours, and after 3 seconds of stirring with a microplate reader, the absorbance was measured at 450 nm (reference 750 nm). In addition, the level of cytotoxicity was detected by measuring lactate dehydrogenase (LDH) activity released extracellularly using Cytotoxicity LDH Assay Kit-WST (manufactured by Dojindo Laboratories). That is, 100 μL each of Working Solution prepared in each well was added, incubated for 30 minutes, Stop Solution was added in 50 μL each, and after stirring for 3 seconds with a microplate reader, the absorbance was measured at 490 nm (reference 750 nm).

“m.1555A>G mutant” cells [4] = assay: Cell survival level (MTT assay) of cisplatin- or gentamicin-treated cells; type: cell-based, human; conditions: 24 hours; for reduction of the cell survival level by gentamicin: gentamicin 2000 μM
Method: as §1, §2
[2] Cisplatin (manufactured by Yakult Corporation) or gentamicin (manufactured by Nacalai Tesque, Inc.) was mixed into the culture solution to be 100 μM and 2000 μM, respectively, and the compound #5 synthesized in Example 1 was mixed with various concentrations (1 and 10 μM), and cultured for 24 hours (cisplatin-treated group and gentamicin-treated group). As a control, “m.1555A>G mutant” cells were cultured in the absence of cisplatin (control group) or cisplatin-treated group in the absence of compound #5 (DMSO was added to 0.01%) for 24 hours. Cell survival level was measured by MTT assay using Cell Counting Kit-8 (manufactured by Dojindo laboratories). Specifically, 100 μL of Cell Count Reagent SF was added to each well, followed by incubation for 2 hours, and then stirred with a microplate reader for 3 seconds. Then the absorbance with 450 nm (reference 750 nm) was measured.

O=C(CC(C(=O)O)c1c[nH]c2ccccc12)c1ccc(F)cc1F (centres unmarked) [compound #5, 4-(2,4-Difluorophenyl)-2-(1H-indol-3-yl)-4-oxo-butanoic Acid]
increase in the level of cytotoxicity (“m.1555A>G mutant” cells [1]; compound 3 μM, vs BSO-treated DMSO): a significant difference was observed
increase in the level of cytotoxicity (“m.1555A>G mutant” cells [1]; compound at least 0.3 μM): suppressed
increase in the level of cytotoxicity (“m.1555A>G mutant” cells [1]; compound at least 1 μM): reduced to a level almost unchanged from that of the control group
amount of ATP production [2]: confirmed
survival rate of the outer hair cells (outer hair cells; cisplatin 10 μM, compound 0, 1, 5, 10, 50 μM): increases in a concentration-dependent manner
survival rate of the outer hair cells (outer hair cells; compound 10 μM, cisplatin 0, 5, 7.5, 10, 15, 20 μM, apex, media, basilar): increased as compared with the DMSO-treated group
decrease in cell survival level (“m.1555A>G mutant” cells [3]; compound 10 μM): significantly suppressed
decrease in cell survival level (“m.1555A>G mutant” cells [3]; compound at least 1 μM): inhibited
decrease in cell survival level due to cisplatin treatment (“m.1555A>G mutant” cells [4]; cisplatin 100 μM, compound 1 to 10 μM): significantly suppressed
reduction of the cell survival level by gentamicin (“m.1555A>G mutant” cells [4]; compound 10 μM): significantly suppressed
reduction of the cell survival level by gentamicin (“m.1555A>G mutant” cells [4]; compound at least 1 μM): suppressed
